Results published in US20260027221A1, “Targeted Pyrrolobenzodiazapine Conjugates” (BeOne Medicines I GmbH, priority 2023, published 2026).

What was measured:
A375 cells = assay: Compounds cellular killing in A375 cancer line (Cell Titer-Glo, 6 days); format: cell-based, human; conditions: Homo sapiens, A-375, 144 h, 6 days incubation, cell viability by Cell Titer-Glo
Protocol: (§1) A375 (ATCC, CRL-1619). […] The base medium for A375 is DMEM, high glucose, GlutaMAX™ Supplement (Gibco, 10566024). To make the complete growth medium, fetal bovine serum was added to the base mediumat a final concentration of 10% (Gibco, 10099-141C). The cell line was grown in a humidified 5% CO2 atmosphere at 37° C., and was regularly tested for the presence of mycoplasma with MycoAlert™ PLUS Mycoplasma Detection Kit (Lonza, LT07-710).
(§2) Payload direct killing by compounds 1-1 to 1-22 was assessed in A375 and Calu-6 cancer cell lines. Cells were seeded at 1E3/well (A375) 2E3/well (Calu-6) into 96-well plates (Greiner: 655090), 100 μL/well, and incubated at 37° C., 5% CO2, overnight. Fresh growth medium was added containing varying concentrations of compounds, 50 μL/well, and incubated at 37° C., 5% CO2, for 6 days. The cell viability detected by Cell Titer-Glo (Promega, G7573), 70 μL/well. The plates were allowed to incubate at room temperature for 10 minutes to stabilize the luminescent signal. The plates were analyzed with a microplate reader.

Calu-6 cells = assay: Compounds cellular killing in Calu-6 cancer line (Cell Titer-Glo, 6 days); format: cell-based, human; conditions: Homo sapiens, Calu-6, 144 h, 6 days incubation, cell viability by Cell Titer-Glo
Protocol: as §1, with “Calu-6” for “A375”, “HTB-56).” for “CRL-1619).”, “Eagle's Minimum Essential Medium (ATCC, 30-2003).” for “DMEM, high glucose, GlutaMAX™ Supplement (Gibco, 10566024).”
as §2

SMILES: COc1cc2c(cc1OCCCCCOc1cc3c(cc1OC)C(=O)N1CC4(CC4)C[C@H]1CN3)N=C[C@@H]1Cc3ccccc3CN1C2=O [Compound 1-3, (S)-2-methoxy-3-((5-(((S)-7-methoxy-5-oxo-5,10,11,11a-tetrahydro-1H,3H-spiro[benzo[e]pyrrolo[1,2-a][1,4]diazepine-2,1′-cyclopropan]-8-yl)oxy)pentyl)oxy)-7,12-dihydrobenzo[5,6][1,4]diazepino[1,2-b]isoquinolin-14(6aH)-one]
- EC50 (A375 cells): 2 pM
- Emax (A375 cells): 99.9%
- EC50 (Calu-6 cells): 1 pM
- Emax (Calu-6 cells): 99.3%

SMILES: COc1cc2c(cc1OCCCOc1cc3c(cc1OC)C(=O)N1CC4(CC4)C[C@H]1C=N3)N=C[C@@H]1Cc3ccccc3CN1C2=O [Compound 1-14, (S)-2-methoxy-3-(3-(((S)-7-methoxy-5-oxo-5,11a-dihydro-1H,3H-spiro[benzo[e]pyrrolo[1,2-a][1,4]diazepine-2,1′-cyclopropan]-8-yl)oxy)propoxy)-7,12-dihydrobenzo[5,6][1,4]diazepino[1,2-b]isoquinolin-14(6aH)-one]
- EC50 (A375 cells): 33 pM
- Emax (A375 cells): 98.9%
- EC50 (Calu-6 cells): 10 pM
- Emax (Calu-6 cells): 99.2%

SMILES: COc1cc2c(cc1OCCCCCOc1cc3c(cc1OC)C(=O)N1Cc4ccccc4C[C@H]1CN3)N=C[C@@H]1CC3(CC3)CN1C2=O [Compound 1-2, (S)-2-methoxy-3-((5-(((S)-7-methoxy-5-oxo-5,11a-dihydro-1H,3H-spiro[benzo[e]pyrrolo[1,2-a][1,4]diazepine-2,1′-cyclopropan]-8-yl)oxy)pentyl)oxy)-6,6a,7,12-tetrahydrobenzo[5,6][1,4]diazepino[1,2-b]isoquinolin-14(5H)-one]
- EC50 (A375 cells): 118 pM
- Emax (A375 cells): 98%
- EC50 (Calu-6 cells): 52 pM
- Emax (Calu-6 cells): 97.6%

SMILES: COc1cc2c(cc1OCCNCCOc1cc3c(cc1OC)C(=O)N1CC4(CC4)C[C@H]1C=N3)N=C[C@@H]1CC3(CC3)CN1C2=O [Compound 1-13, (11aS,11a″S)-8,8″-((azanediylbis(ethane-2,1-diyl))bis(oxy))bis(7-methoxy-1,11a-dihydro-3H,5H-spiro[benzo[e]pyrrolo[1,2-a][1,4]diazepine-2,1′-cyclopropan]-5-one)]
- EC50 (A375 cells): 9120 pM
- Emax (A375 cells): 100%
- EC50 (Calu-6 cells): 1620 pM
- Emax (Calu-6 cells): 99.7%

SMILES: C=C1CCN2C(=O)c3cc(OC)c(OCCCCCOc4cc5c(cc4OC)C(=O)N4CC6(CC6)C[C@H]4C=N5)cc3N=C[C@@H]2C1 [Compound 1-7, (S)-7-methoxy-8-((5-(((S)-2-methoxy-8-methylene-12-oxo-6a,7,8,9,10,12-hexahydrobenzo[e]pyrido[1,2-a][1,4]diazepin-3-yl)oxy)pentyl)oxy)-1,11a-dihydro-3H,5H-spiro[benzo[e]pyrrolo[1,2-a][1,4]diazepine-2,1′-cyclopropan]-5-one]
- EC50 (A375 cells): 102 pM
- Emax (A375 cells): 89%
- EC50 (Calu-6 cells): 17 pM
- Emax (Calu-6 cells): 97.7%

SMILES: COc1cc2c(cc1OCc1cccc(COc3cc4c(cc3OC)C(=O)N3CC5(CC5)C[C@H]3C=N4)c1)N=C[C@@H]1CC3(CC3)CN1C2=O [Compound 1-8, (11aS,11a″S)-8,8″-((1,3-phenylenebis(methylene))bis(oxy))bis(7-methoxy-1,11a-dihydro-3H,5H-spiro[benzo[e]pyrrolo[1,2-a][1,4]diazepine-2,1′-cyclopropan]-5-one)]
- EC50 (A375 cells): 29 pM
- Emax (A375 cells): 99.2%
- EC50 (Calu-6 cells): 5 pM
- Emax (Calu-6 cells): 98.4%

SMILES: C=C1C[C@H]2C=Nc3cc(OCCN(C)CCOc4cc5c(cc4OC)C(=O)N4CC(=C)C[C@H]4C=N5)c(OC)cc3C(=O)N2C1 [Compound 1-22, (11aS,11a′S)-8,8′-(((methylazanediyl)bis(ethane-2,1-diyl))bis(oxy))bis(7-methoxy-2-methylene-1,2,3,11a-tetrahydro-5H-benzo[e]pyrrolo[1,2-a][1,4]diazepin-5-one)]
- EC50 (A375 cells): 5500 pM
- Emax (A375 cells): 97.3%
- EC50 (Calu-6 cells): 1300 pM
- Emax (Calu-6 cells): 99.2%

SMILES: COc1cc2c(cc1OCc1cccc(COc3cc4c(cc3OC)C(=O)N3CC5(CC5)C[C@H]3CN4)c1)NC[C@@H]1CC3(CC3)CN1C2=O [Compound 1-10]
- EC50 (A375 cells): > 1000 pM
- Emax (A375 cells): 42%
- EC50 (Calu-6 cells): 358 pM
- Emax (Calu-6 cells): 84.7%
